Laboratory results reported in patent publication US20260001928A1 (CORTERIA PHARMACEUTICALS, priority 2022, published 2026).
*1 amine or outer side, *2 acyl side, *3 side chain or, on linkers, in order; H or OH if unused. Where a SMILES comes first, the peptide text is derived from it. Side-chain parts run from the residue outwards. [ ]: non-standard residue; d: D form. The star is where a group is joined. C20 diacid = O=C(O)CCCCCCCCCCCCCCCCCCC(=O)*; γGlu = O=C(O)[C@H](CCC(=O)[*:2])N[*:1]; NMeI = CC[C@H](C)[C@H](NC)C(=O)O; AEEA = NCCOCCOCC(=O)O; Aib = CC(C)(N)C(=O)O

Assays:
Minipig PLM = details: 37° C., up to 2 hours
Human PLM = details: 37° C., up to 2 hours
Dog PLM = details: 37° C., up to 2 hours
Rat PLM = details: male Sprague Dawley rats, 37° C., up to 2 hours
[1] = Pharmacokinetics in male Sprague Dawley rats after subcutaneous administration; assay type: in vivo; details: plasma, rat, IV, 0.05 mg/kg
[2] = Chemical stability in buffer (pH 7.4 / pH 4.5), % purity loss; assay type: physicochemical; details: 100 mM phosphate buffer pH 7.4; 40° C. vs 5° C.; 14 or 28 days
Method in brief: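 Compounds dissolved at 10 mg/mL target in 100 mM phosphate (pH 7.4) or 100 mM acetate (pH 4.5) buffer for 1 h at room temperature, then centrifuged. Diluted supernatant stored at 5 °C or 40 °C for 14 or 28 days; % purity loss by LC-UV.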

[3] = In vitro subcutaneous tissue supernatant (SCts) stability and metabolite identification, rat; assay type: in vitro ADME; set-up: remaining at 2 h: dose or concentration left out as unconfirmed; details: male, Sprague Dawley; rat subcutaneous tissue supernatant (SCts), 37° C, 2 h
[4] = In vitro plasma stability, human plasma; assay type: in vitro ADME; set-up: dose or concentration left out as unconfirmed; details: Human PLM, 37° C.
Procedure: (§1) In vitro plasma metabolic stability was studied in male Sprague Dawley rats and human. Test compounds were incubated at 3 M for 2 hours at 37° C. At each time point (0, 0.25, 1 and 2 h), samples were prepared for analysis by means of a single step protein precipitation technique by adding 150 μL of ethanol, 0.1% formic acid to 50 μL aliquots of plasma. Samples were mixed by vortex for homogeneity and then subjected to centrifugation at 14000 rpm for 15 min. The supernatant (100 μL) was collected, diluted with 100 μL of water, 0.1% formic acid and analyzed by LC-HRMS (TripleTOF 6600+, AB Sciex). For each test compound, the area ratios at each time point were compared to the 0 h area ratio and converted to a percentage remaining.

in vitro = assay: in vitro; set-up: dose or concentration left out as unconfirmed; details: dog, plasma
[5] = In vitro plasma stability, rat plasma; assay type: in vitro ADME; set-up: remaining at 2 h: dose or concentration left out as unconfirmed; details: male, Sprague Dawley, plasma; Rat PLM, 37° C.
Procedure: as §1

human CRF2a receptor = target: T1, human CRF2a receptor (Homo sapiens, UniProt Q13324); assay: Activity at human CRF2a receptor, cAMP functional assay in TeloHEAC cells; assay type: cell-based; details: TeloHEAC cells stably expressing human CRF2a receptor, relative to urocortin 2 (100 nM = 100%)
T1 construct: expressed in transfected cells; host or cells: TeloHEAC cells
T1 sequence (Q13324 1-411): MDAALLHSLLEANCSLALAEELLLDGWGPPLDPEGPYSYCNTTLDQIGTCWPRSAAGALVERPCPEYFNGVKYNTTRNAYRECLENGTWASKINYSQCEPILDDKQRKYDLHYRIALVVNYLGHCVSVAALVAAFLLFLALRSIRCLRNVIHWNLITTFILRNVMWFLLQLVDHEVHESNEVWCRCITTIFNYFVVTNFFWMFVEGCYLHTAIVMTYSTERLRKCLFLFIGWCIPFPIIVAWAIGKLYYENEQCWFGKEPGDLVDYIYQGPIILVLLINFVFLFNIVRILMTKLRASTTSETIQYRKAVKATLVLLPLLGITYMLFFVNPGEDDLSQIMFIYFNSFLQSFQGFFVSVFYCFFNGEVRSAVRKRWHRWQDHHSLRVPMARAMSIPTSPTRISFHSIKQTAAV
Method in brief: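 TeloHEAC cells stably expressing human CRF2a (10000 cells/well) were treated with 16-point 1:2 compound dilutions in HBSS/20 mM HEPES with IBMX for 30 min at 37° C. cAMP was read by HTRF (665/620 nm ratio). EC50 was the concentration giving 50% activation, with 100 nM urocortin 2 set as 100%.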

CFR1R receptor = target: T2, CFR1R receptor (Homo sapiens, UniProt P34998); assay: Activity at anti-target CFR1R receptor, cAMP assay in CRF1R-overexpression CHO-K1 cells; assay type: cell-based; details: 100% = Sauvagine at 100 nM; for EC50: cAMP
T2 construct: host or cells: CHO-K1 (clone 2)
T2 sequence (P34998 24-415): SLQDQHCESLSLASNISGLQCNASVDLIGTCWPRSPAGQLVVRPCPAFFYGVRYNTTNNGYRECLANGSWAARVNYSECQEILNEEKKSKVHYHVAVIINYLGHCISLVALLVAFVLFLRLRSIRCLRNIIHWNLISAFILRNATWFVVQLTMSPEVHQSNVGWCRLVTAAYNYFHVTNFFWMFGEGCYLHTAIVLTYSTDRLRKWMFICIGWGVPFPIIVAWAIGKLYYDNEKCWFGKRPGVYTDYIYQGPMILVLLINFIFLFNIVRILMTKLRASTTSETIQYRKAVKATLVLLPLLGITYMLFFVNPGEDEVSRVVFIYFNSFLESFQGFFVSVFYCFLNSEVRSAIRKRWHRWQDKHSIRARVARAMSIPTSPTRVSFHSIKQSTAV
Method in brief: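 Run as for the TeloHAEC line, except the full-activation control well received Sauvagine (100 nM) and final density was 4000 cells/well. Cells from clone 2 came from frozen aliquots of near-confluent cultures.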

Sprague Dawley rats = assay: Effect on systolic blood pressure, telemetry in Sprague Dawley rats; assay type: in vivo, rat; details: 0.1 mg/kg SC; for Systolic blood pressure (Mean) % change from baseline, 8 h / Systolic blood pressure (Mean) % change from baseline, 12 h / Systolic blood pressure (Mean) % change from baseline, 24 h: n=2; for Duration of action: last time point with an effect on BP still observed
Method in brief: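 Sprague Dawley rats with abdominal-aorta telemetry catheters, recovered ≥10 days, received 0.1 mg/kg SC of compound or vehicle. Systolic pressure recorded 1 h pre-dose as baseline, then continuously up to 48 hours, expressed as % change from baseline; duration of action is last time point with a BP effect (n=2).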

not cleaved (Minipig PLM) [% remaining at 2 hours]	not cleaved (Human PLM) [% remaining at 2 hours]	not cleaved (Rat PLM) [% remaining at 2 hours]	Buffer stability pH 7.4 % purity loss [2]	remaining at 2 h [3] [%]	remaining at 2 h [4] [%]	remaining at 2 h (in vitro) [%]	remaining at 2 h [5] [%]	EC50 (human CRF2a receptor) [nM]	Emax (% I) (CFR1R receptor)	EC50 (CFR1R receptor) [nM]	Molecule	further results
–	99	99	–	–	–	–	–	–	–	–	Ac-IVLSLDvPIKLK*KILLEQEKQKEQREQAETNAibQILAQV-NH2	percent remaining (Dog PLM): 102% remaining at 2 hours
–	–	–	0.0/Not Tested %	60	83	86	84	0.41	6	> 250	CC[C@H](C)[C@H](NC)C(=O)N[C@H](C(=O)N[C@@H](CC(C)C)C(=O)N[C@@H](CO)C(=O)N[C@@H](CC(C)C)C(=O)N[C@@H](CC(=O)O)C(=O)N[C@@H](C(=O)N1CCC[C@H]1C(=O)N[C@H](C(=O)N[C@@H](CCCCN)C(=O)N[C@@H](CC(C)C)C(=O)N[C@@H](CCCCNC(=O)COCCOCCNC(=O)COCCOCCNC(=O)CC[C@H](NC(=O)CCCCCCCCCCCCCCCCCCC(=O)O)C(=O)O)C(=O)N[C@@H](CCCCN)C(=O)N[C@H](C(=O)N[C@@H](CC(C)C)C(=O)N[C@@H](CC(C)C)C(=O)N[C@@H](CCC(=O)O)C(=O)N[C@@H](CCC(N)=O)C(=O)N[C@@H](CCC(=O)O)C(=O)N[C@@H](CCCCN)C(=O)N[C@@H](CCC(N)=O)C(=O)N[C@@H](CCCCN)C(=O)N[C@@H](CCC(=O)O)C(=O)N[C@@H](CCC(N)=O)C(=O)N[C@@H](CCCNC(=N)N)C(=O)N[C@@H](CCC(=O)O)C(=O)N[C@@H](CCC(N)=O)C(=O)N[C@@H](C)C(=O)N[C@@H](CCC(=O)O)C(=O)N[C@H](C(=O)N[C@@H](CC(N)=O)C(=O)NC(C)(C)C(=O)N[C@@H](CCC(N)=O)C(=O)N[C@H](C(=O)N[C@@H](CC(C)C)C(=O)N[C@@H](C)C(=O)N[C@@H](CCC(N)=O)C(=O)N[C@H](C(N)=O)C(C)C)[C@@H](C)CC)[C@@H](C)O)[C@@H](C)CC)[C@@H](C)CC)C(C)C)C(C)C [compound 237] (H-[NMeI]VLSLD[dV]PIKLK([AEEA-AEEA-γGlu-C20 diacid])KILLEQEKQKEQREQAETN[Aib]QILAQV-NH2)	AUC(0-t) [1]: 4160 ng·h/mL; half-life [1]: 11 h
–	–	–	−0.1/Not Tested %	74	99	102	99	0.22	27	> 250	CC[C@H](C)[C@H](NC(C)=O)C(=O)N[C@H](C(=O)N[C@@H](CC(C)C)C(=O)N[C@@H](CO)C(=O)N[C@@H](CC(C)C)C(=O)N[C@@H](CC(=O)O)C(=O)N[C@@H](C(=O)N1CCC[C@H]1C(=O)N[C@H](C(=O)N[C@@H](CCCCN)C(=O)N[C@@H](CC(C)C)C(=O)N[C@@H](CCCCNC(=O)CC[C@H](NC(=O)CCCCCCCCCCCCCCCCCCC(=O)O)C(=O)O)C(=O)N[C@@H](CCCCN)C(=O)N[C@H](C(=O)N[C@@H](CC(C)C)C(=O)N[C@@H](CC(C)C)C(=O)N[C@@H](CCC(=O)O)C(=O)N[C@@H](CCC(N)=O)C(=O)N[C@@H](CCC(=O)O)C(=O)N[C@@H](CCCCN)C(=O)N[C@@H](CCC(N)=O)C(=O)N[C@@H](CCCCN)C(=O)N[C@@H](CCC(=O)O)C(=O)N[C@@H](CCC(N)=O)C(=O)N[C@@H](CCCNC(=N)N)C(=O)N[C@@H](CCC(=O)O)C(=O)N[C@@H](CCC(N)=O)C(=O)N[C@@H](C)C(=O)N[C@@H](CCC(=O)O)C(=O)N[C@H](C(=O)N[C@@H](CC(N)=O)C(=O)NC(C)(C)C(=O)N[C@@H](CCC(N)=O)C(=O)N[C@H](C(=O)N[C@@H](CC(C)C)C(=O)N[C@@H](C)C(=O)N[C@@H](CCC(N)=O)C(=O)N[C@H](C(N)=O)C(C)C)[C@@H](C)CC)[C@@H](C)O)[C@@H](C)CC)[C@@H](C)CC)C(C)C)C(C)C [compound 213] (Ac-IVLSLD[dV]PIKLK([γGlu-C20 diacid])KILLEQEKQKEQREQAETN[Aib]QILAQV-NH2)	Systolic blood pressure (Mean) % change from baseline, 8 h (Sprague Dawley rats): −10%; Systolic blood pressure (Mean) % change from baseline, 12 h (Sprague Dawley rats): −18%; Systolic blood pressure (Mean) % change from baseline, 24 h (Sprague Dawley rats): −13%; Duration of action (Sprague Dawley rats): >24 h
126	91	128	–	–	–	–	–	–	–	–	NMeIVLSLDvPIKLK*KILLEQEKQKKQREQAETNAibQILAQV-NH2	–
104	101	98	–	–	–	–	–	–	–	–	Pentanoyl-VLSLDvPIKLK*KILLEQEKQKKQREQAETNAibQILAQV-NH2	–

Second part, the molecule before the results:

Molecule	not cleaved (Minipig PLM) [% remaining at 2 hours]	not cleaved (Human PLM) [% remaining at 2 hours]	not cleaved (Rat PLM) [% remaining at 2 hours]	Buffer stability pH 7.4 % purity loss [2]	remaining at 2 h [3] [%]	remaining at 2 h [4] [%]	remaining at 2 h (in vitro) [%]	remaining at 2 h [5] [%]	EC50 (human CRF2a receptor) [nM]	Emax (% I) (CFR1R receptor)	EC50 (CFR1R receptor) [nM]	further results
Ac-IVLSLDvPIKLK*KILLEQEKQKKQREQAETNAbuQILAQV-NH2	97	102	–	–	–	–	–	–	–	–	–	–
Ac-IVLSLDvPIKαMELK*KILLEQEKQKKQREQAETNAibQILAQV-NH2	106	97	95	–	–	–	–	–	–	–	–	–
Ac-IVLSLDvPIKLK*KILLEQEKQKKQREQAETNAibQILAQV-NH2	110	93	108	–	–	–	–	–	–	–	–	–
CC[C@H](C)[C@H](NC)C(=O)N[C@H](C(=O)N[C@@H](CC(C)C)C(=O)N[C@@H](CO)C(=O)N[C@@H](CC(C)C)C(=O)N[C@@H](CC(=O)O)C(=O)N[C@@H](C(=O)N1CCC[C@H]1C(=O)N[C@H](C(=O)N[C@@H](CCCCN)C(=O)N[C@@H](CC(C)C)C(=O)N[C@@H](CCCCNC(=O)COCCOCCNC(=O)CC[C@H](NC(=O)CCCCCCCCCCCCCCCCCCC(=O)O)C(=O)O)C(=O)N[C@@H](CCCCN)C(=O)N[C@H](C(=O)N[C@@H](CC(C)C)C(=O)N[C@@H](CC(C)C)C(=O)N[C@@H](CCC(=O)O)C(=O)N[C@@H](CCC(N)=O)C(=O)N[C@@H](CCC(=O)O)C(=O)N[C@@H](CCCCN)C(=O)N[C@@H](CCC(N)=O)C(=O)N[C@@H](CCCCN)C(=O)N[C@@H](CCC(=O)O)C(=O)N[C@@H](CCC(N)=O)C(=O)N[C@@H](CCCNC(=N)N)C(=O)N[C@@H](CCC(=O)O)C(=O)N[C@@H](CCC(N)=O)C(=O)N[C@@H](C)C(=O)N[C@@H](CCC(=O)O)C(=O)N[C@H](C(=O)N[C@@H](CC(N)=O)C(=O)NC(C)(C)C(=O)N[C@@H](CCC(N)=O)C(=O)N[C@H](C(=O)N[C@@H](CC(C)C)C(=O)N[C@@H](C)C(=O)N[C@@H](CCC(N)=O)C(=O)N[C@H](C(N)=O)C(C)C)[C@@H](C)CC)[C@@H](C)O)[C@@H](C)CC)[C@@H](C)CC)C(C)C)C(C)C [compound 233] (H-[NMeI]VLSLD[dV]PIKLK([AEEA-γGlu-C20 diacid])KILLEQEKQKEQREQAETN[Aib]QILAQV-NH2)	–	–	–	0.0/Not Tested %	56	100	99	106	0.12	8	> 250	AUC(0-t) [1]: 4880 ng·h/mL; half-life [1]: 9 h; Systolic blood pressure (Mean) % change from baseline, 8 h (Sprague Dawley rats): 1%; Systolic blood pressure (Mean) % change from baseline, 12 h (Sprague Dawley rats): −8%; Systolic blood pressure (Mean) % change from baseline, 24 h (Sprague Dawley rats): −11%; Duration of action (Sprague Dawley rats): >24 h
